Numbered stars: 1 amine (or outer) side, 2 acyl side, 3 side chain; on linkers, the order of the positions; unused ones are H or OH. Square brackets hold non-standard residues; d marks the D form. Peptide text beside a SMILES is read from it. * marks the point of attachment. Butanoyl(3R-OMe,4S-NMe,4-Cy) = CO[C@H](CC(=O)[*:2])[C@H](C1CCCCC1)N(C)[*:1]; Dolaproine = CO[C@@H]([C@@H]1CCCN1)[C@@H](C)C(=O)O; X2 = CO[C@H](CC(=O)[*:2])[C@H](C1CCCC1)N(C)[*:1]; NMeV = CN[C@H](C(=O)O)C(C)C; Aib = CC(C)(N)C(=O)O; OtBu = CC(C)(C)O*
Key:
Format in all cases: cell-based, Human
Hela = test: In vitro cell assay (Cell Titer Glo), Hela; conditions: 6 days exposure
Description: (§1) In vitro cell assay is performed in a 96 well micro titer plate. Human tumor cell lines Hela, A549, MCF-7, HCC-1954 and SK-BR-3 are obtained from ATCC (American Type Culture Collection).
The cells were harvested respectively during the logarithmic growth period and counted with hemocytometer. The cell viability was over 98% by trypan blue exclusion. 90 μl of cell suspensions were added in to 96-well plates, the final cell density was reached to 3000 cells/well. Plates were incubated for 96 hours at 37° C., and 5% CO2.
(§2) To each well was added 10 μL, of DMSO diluted compound (10×). For the sentinel base T0 plate, to each well was added 100 μL Cell Titer Gloand the luminescence signals with Envision reading were recorded.
(§3) […] Plates are read with Envision after adding Cell Titer Glo to each well. IC50 values were calculated using GraphPad Prism 5.

A549 = test: In vitro cell assay (Cell Titer Glo), A549
Description: as §1
The cells were harvested respectively during the logarithmic growth period and counted with hemocytometer. The cell viability was over 98% by trypan blue exclusion. 90 μl of cell suspensions were added in to 96-well plates, the final cell density was reached to 3000 cells/well. […]
as §2, §3

HCC1954 = test: In vitro cell assay (Cell Titer Glo), HCC1954; conditions: 6 days exposure
Description: as §1
The cells were harvested respectively during the logarithmic growth period and counted with hemocytometer. […] 90 μl of cell suspensions were added in to 96-well plates, the final cell density was reached to 3000 cells/well. […]
as §2, §3

SK-BR-3 = test: In vitro cell assay (Cell Titer Glo), SK-BR-3; conditions: 6 days exposure
Description: as §1
(§4) The cells were harvested respectively during the logarithmic growth period and counted with hemocytometer. […] 90 μl of cell suspensions were added in to 96-well plates, the final cell density was reached to 3000 cells/well. Plates were incubated for 96 hours at 37° C., and 5% CO2.
as §2, §3

MCF-7 = test: In vitro cell assay (Cell Titer Glo), MCF-7
Description: as §1, §4, §2, §3

[1] = Homo sapiens, HeLa, 144 h, Table 01
[2] = Homo sapiens, HCC1954, 144 h, Table 01
[3] = Homo sapiens, SK-BR-3, 144 h, Table 01
[4] = Homo sapiens, HeLa, 144 h, Table 2
[5] = Homo sapiens, HCC1954, 144 h, Table 2
[6] = Homo sapiens, SK-BR-3, 144 h, Table 2

Structure (SMILES)	IC50 (Hela; [1])	IC50 (A549; Homo sapiens, A549, Table 01)	IC50 (HCC1954; [2])	IC50 (SK-BR-3; [3])	IC50 (MCF-7; Homo sapiens, MCF7, Table 01)	other results
CN[C@H](C(=O)N[C@H](C(=O)N(C)[C@@H](C1CCCCC1)[C@@H](CC(=O)N1CCC[C@H]1[C@H](OC)[C@@H](C)C(=O)N[C@@H](Cc1ccccc1)C(=O)OC(C)(C)C)OC)C(C)C)C(C)C [Compound 38] (H-[NMeV]V[Butanoyl(3R-OMe,4S-NMe,4-Cy)][Dolaproine]F-OtBu)	0.078 nM	0.275 nM	0.128 nM	0.097 nM	0.642 nM	
N.N.[Cl][Pt][Cl] [Cisplatin, reference compound]						IC50 (Hela; Table 01): 182 nM; IC50 (Hela; Table 2): 182 nM; IC50 (A549; Table 01, 6 days exposure): 2830 nM; IC50 (A549; Table 2, 6 days exposure): 2830 nM; IC50 (HCC1954; Table 01): 3270 nM; IC50 (HCC1954; Table 2): 3270 nM; IC50 (SK-BR-3; Table 01): 854 nM; IC50 (SK-BR-3; Table 2): 854 nM; IC50 (MCF-7; Table 01, 6 days exposure): 3550 nM; IC50 (MCF-7; Table 2, 6 days exposure): 3550 nM
CN[C@H](C(=O)N[C@H](C(=O)N(C)[C@@H](C1CCCC1)[C@@H](CC(=O)N1CCC[C@H]1[C@H](OC)[C@@H](C)C(=O)N[C@H](C)[C@@H](O)c1ccccc1)OC)C(C)C)C(C)C [Compound 33]	0.43 nM	2.05 nM	0.146 nM	0.381 nM	1.36 nM	
CN[C@H](C(=O)N[C@H](C(=O)N(C)[C@@H](C1CCCC1)[C@@H](CC(=O)N1CCC[C@H]1[C@H](OC)[C@@H](C)C(=O)N[C@@H](Cc1ccccc1)C(=O)OC(C)(C)C)OC)C(C)C)C(C)C [Compound 37] (H-[NMeV]V[X2][Dolaproine]F-OtBu)	0.198 nM	0.863 nM	0.095 nM	0.118 nM	0.456 nM	
CO[C@H]([C@@H](C)C(=O)N[C@H](C)[C@@H](O)c1ccccc1)[C@@H]1CCCN1C(=O)C[C@@H](OC)[C@H](C1CCCC1)N(C)C(=O)[C@@H](NC(=O)C(C)(C)N)C(C)C [Compound 17, (S)-2-(2-amino-2-methylpropanamido)-N-((1S,2R)-1-cyclopentyl-4-((S)-2-((1R,2R)-3-((1S,2R)-1-hydroxy-1-phenylpropan-2-ylamino)-1-methoxy-2-methyl-3-oxopropyl)pyrrolidin-1-yl)-2-methoxy-4-oxobutyl)-N,3-dimethylbutanamide]						IC50 (Hela; [4]): 1.56 nM; IC50 (A549; Homo sapiens, A549, Table 2): 6.32 nM; IC50 (HCC1954; [5]): 0.623 nM; IC50 (SK-BR-3; [6]): 0.839 nM; IC50 (MCF-7; Homo sapiens, MCF7, Table 2): 4.75 nM
CN[C@H](C(=O)N[C@H](C(=O)N(C)[C@@H](C1CCCC1)[C@@H](CC(=O)N1CCC[C@H]1[C@H](OC)[C@@H](C)C(=O)N[C@@H](Cc1ccccc1)c1nccs1)OC)C(C)C)C(C)C [Compound 35]	0.102 nM	0.68 nM	0.119 nM	0.191 nM	0.914 nM	
CO[C@H]([C@@H](C)C(=O)N[C@@H](Cc1ccccc1)C(=O)OC(C)(C)C)[C@@H]1CCCN1C(=O)C[C@@H](OC)[C@H](C1CCCCC1)N(C)C(=O)[C@@H](NC(=O)C(C)(C)N)C(C)C [Compound 22, (S)-tert-butyl-2-((2R,3R)-3-((S)-1-((3R,4S)-4-((S)-2-(2-amino-2-methylpropanamido)-N, 3-dimethylbutanamido)-4-cyclohexyl-3-methoxybutanoyl)pyrrolidin-2-yl)-3-methoxy-2-methylpropanamido)-3-phenylpropanoate] (H-[Aib]V[Butanoyl(3R-OMe,4S-NMe,4-Cy)][Dolaproine]F-OtBu)						IC50 (Hela; [4]): 0.567 nM; IC50 (A549; Homo sapiens, A549, Table 2): 1.08 nM; IC50 (HCC1954; [5]): 0.112 nM; IC50 (SK-BR-3; [6]): 0.066 nM; IC50 (MCF-7; Homo sapiens, MCF7, Table 2): 0.529 nM

— patent US20160158307A1, “Potent and Efficient Cytotoxic Peptides and Antibody-Drug Conjugates thereof and Their Synthesis” (priority 2014, published 2016)
